Results reported in ChEMBL document CHEMBL1127090, “In vitro cytotoxicity of GC sequence directed alkylating agents related to distamycin” (J Med Chem, 1993).

Assays:
K562 [1] = experiment: Inhibitory activity against K-562 (human chronic myeloid Leukemia) cells; format: functional, cell-based
Nucleic Acid [2] = experiment: Apparent binding constant to poly (dA.dT) DNA was evaluated by measuring the loss of ethidium fluorescence; format: nucleic-acid assay
COLO 205 = experiment: Cytotoxicity against the COLO-205 Colon Cancer cell line from human cancer.; format: functional; details: read-out: LC50 (the source's name)
DMS-114 = experiment: Cytotoxicity against the DMS114 Small Cell Lung Cancer cell line from human cancer.; format: functional; details: read-out: LC50 (the source's name)
EKVX = experiment: Cytotoxicity against the […] Non-Small Cell Lung Cancer cell line from human cancer; format: functional; details: read-out: LC50 (the source's name)
HL-60 = experiment: Cytotoxicity against the HL-60 (TB) Leukemia cell line from human cancer.; format: functional; details: read-out: LC50 (the source's name)
HOP-62 = experiment: Cytotoxicity against the HOP-62 Non-Small Cell Lung Cancer cell line from human cancer; format: functional; details: read-out: LC50 (the source's name)
HCC 2998 = experiment: Cytotoxicity against the HCC2998 Colon Cancer cell line from human cancer.; format: functional; details: read-out: LC50 (the source's name)
K562 [3] = experiment: Cytotoxicity against the K-562 Leukemia cell line from human cancer.; format: functional; details: read-out: LC50 (the source's name)
M19-MEL = experiment: Cytotoxicity against the M19-MEL Melanoma cell line from human cancer.; format: functional; details: read-out: LC50 (the source's name)
KM12 = experiment: Cytotoxicity against the KM12 Colon Cancer cell line from human cancer.; format: functional; details: read-out: LC50 (the source's name)
Malme-3M = experiment: Cytotoxicity against the MALME-3M Melanoma cell line from human cancer.; format: functional; details: read-out: LC50 (the source's name)
MOLT-4 = experiment: Cytotoxicity against the Molt-4 Leukemia cell line from human cancer.; format: functional; details: read-out: LC50 (the source's name)
OVCAR-3 = experiment: Cytotoxicity against the OVCAR-3 Ovarian Cancer cell line from human cancer.; format: functional; details: read-out: LC50 (the source's name)
OVCAR-4 = experiment: Cytotoxicity against the OVCAR-4 Ovarian Cancer cell line from human cancer.; format: functional; details: read-out: LC50 (the source's name)
NCI-H23 = experiment: Cytotoxicity against the NCI-H23 Non-Small Cell Lung Cancer cell line from human cancer.; format: functional; details: read-out: LC50 (the source's name)
RXF 393 = experiment: Cytotoxicity against the RXF-393 Renal Cancer cell line from human cancer.; format: functional; details: read-out: LC50 (the source's name)
SF-268 = experiment: Cytotoxicity against the SF-268 CNS Cancer cell line from human cancer.; format: functional; details: read-out: LC50 (the source's name)
SK-MEL-2 = experiment: Cytotoxicity against the SK-MEL-2 Melanoma cell line from human cancer.; format: functional; details: read-out: LC50 (the source's name)
SW-620 = experiment: Cytotoxicity against the SW-620 Colon Cancer cell line from human cancer.; format: functional; details: read-out: LC50 (the source's name)
SN12C = experiment: Cytotoxicity against the SN12C Renal Cancer cell line from human cancer.; format: functional; details: read-out: LC50 (the source's name)
SNB-75 = experiment: Cytotoxicity against the SNB-75 CNS Cancer cell line from human cancer.; format: functional; details: read-out: LC50 (the source's name)
SK-OV-3 = experiment: Cytotoxicity against the SK-OV-3 Ovarian Cancer cell line from human cancer.; format: functional; details: read-out: LC50 (the source's name)
SK-MEL-28 = experiment: Cytotoxicity against the SK-MEL-28 Melanoma cell line from human cancer.; format: functional; details: read-out: LC50 (the source's name)
Tequatrovirus T4 = experiment: Apparent binding constant to T4 coliphage DNA was evaluated by measuring the loss of ethidium fluorescence; format: functional
U-251 = experiment: Cytotoxicity against the U251 CNS Cancer cell line from human cancer.; format: functional; details: read-out: LC50 (the source's name)
Bos taurus = species on record: Bos taurus; experiment: Apparent binding constant to calf thymus DNA was evaluated by measuring the loss of ethidium fluorescence
Nucleic Acid [4] = experiment: Apparent binding constant to poly (dG.dC) DNA was evaluated by measuring the loss of ethidium fluorescence; format: nucleic-acid assay
DMS-273 = experiment: Cytotoxicity against the DMS273 Small Cell Lung Cancer cell line from human cancer.; format: functional; details: read-out: LC50 (the source's name)

Molecule `CN(C)CCNC(=O)c1nc(NC(=O)c2nc(NC(=O)CCl)cn2C)cn1C` has an IC50 (K562 [1]) of 350 µM.

Work on `CN(C)CCNC(=O)c1nc(NC(=O)c2nc(NC(=O)CBr)cn2C)cn1C` yielded an IC50 (K562 [1]) of 400 µM.

With `CCBr` the K app (Nucleic Acid [2]) was 9.5e+06 M⁻¹.

`CN(C)CCNC(=O)c1nc(NC(=O)c2nc(NC(=O)c3ccc(N(CCCl)CCCl)cc3)cn2C)cn1C` gave a CC50 (COLO 205) of 5.88 µM, a CC50 (DMS-114) of 5.83 µM and a CC50 (EKVX) of 47.5 µM. The CC50 (HL-60) was 7.84 µM, the CC50 (HOP-62) was 52.3 µM and the CC50 (HCC 2998) was 33.7 µM. The CC50 (K562 [3]) was 17.2 µM, the IC50 (K562 [1]) was 12.5 µM and the CC50 (M19-MEL) was 5.64 µM. The CC50 (KM12) was 47 µM, the CC50 (Malme-3M) was 6.14 µM and the CC50 (MOLT-4) was 18.1 µM. The CC50 (OVCAR-3) was 56 µM, the CC50 (OVCAR-4) was 34.2 µM and the CC50 (NCI-H23) was 47.1 µM. For the same molecule, the CC50 (RXF 393) was 50.3 µM, the CC50 (SF-268) was 50 µM and the CC50 (SK-MEL-2) was 7.17 µM. For the same molecule, the CC50 (SW-620) was 9.95 µM, the CC50 (SN12C) was 15.6 µM and the CC50 (SNB-75) was 41 µM. It also gave a CC50 (SK-OV-3) of 52.9 µM, a CC50 (SK-MEL-28) of 5.69 µM and a K app (Tequatrovirus T4) of 236000 M⁻¹. The CC50 (U-251) was 6.73 µM, the K app (Bos taurus) was 456000 M⁻¹ and the K app (Nucleic Acid [4]) was 455000 M⁻¹. The K app (Nucleic Acid [2]) was 475000 M⁻¹.

`CN(C)CCNC(=O)c1nc(NC(=O)c2nc(NC(=O)C3CC3)cn2C)cn1C` gave an IC50 (K562 [1]) greater than 500 µM.

`CN(C)CCNC(=O)c1nc(NC(=O)c2nc(NC(=O)c3nc(NC(=O)c4ccc(N(CCCl)CCCl)cc4)cn3C)cn2C)cn1C` showed a CC50 (COLO 205) of 0.97 µM, a CC50 (DMS-114) of 0.54 µM and a CC50 (DMS-273) of 0.99 µM. It also gave a CC50 (EKVX) of 0.88 µM, a CC50 (HL-60) of 0.72 µM and a CC50 (HOP-62) of 1.17 µM. The CC50 (HCC 2998) was 0.68 µM, the CC50 (K562 [3]) was 0.58 µM and the IC50 (K562 [1]) was 0.3 µM. For the same molecule, the CC50 (M19-MEL) was 0.56 µM, the CC50 (KM12) was 0.96 µM and the CC50 (Malme-3M) was 2.63 µM. The CC50 (MOLT-4) was 0.98 µM, the CC50 (OVCAR-3) was 0.72 µM and the CC50 (OVCAR-4) was 0.61 µM. For the same molecule, the CC50 (NCI-H23) was 0.96 µM, the CC50 (RXF 393) was 0.66 µM and the CC50 (SF-268) was 0.77 µM. The CC50 (SK-MEL-2) was 0.65 µM, the CC50 (SW-620) was 0.79 µM and the CC50 (SN12C) was 0.61 µM. The CC50 (SNB-75) was 0.61 µM, the CC50 (SK-OV-3) was 0.83 µM and the CC50 (SK-MEL-28) was 0.91 µM. The K app (Tequatrovirus T4) was 168000 M⁻¹, the CC50 (U-251) was 0.5 µM and the K app (Bos taurus) was 591000 M⁻¹. For the same molecule, the K app (Nucleic Acid [4]) was 495000 M⁻¹ and the K app (Nucleic Acid [2]) was 950000 M⁻¹.

Molecule `CN(C)CCNC(=O)c1nc(NC(=O)c2nc(NC(=O)C(Cl)Cl)cn2C)cn1C` has an IC50 (K562 [1]) greater than 500 µM.

With `Cn1cc(NC(=O)c2cc(NC(=O)c3cc(NC=O)cn3C)cn2C)cc1C(=O)NCCC(=N)N` [STALLIMYCIN] the K app (Tequatrovirus T4) was 650000 M⁻¹, the K app (Bos taurus) was 774000 M⁻¹ and the K app (Nucleic Acid [4]) was 203000 M⁻¹. The K app (Nucleic Acid [2]) was 3.48e+07 M⁻¹.

`CN(C)CCNC(=O)c1nc(NC=O)cn1C` showed a K app (Bos taurus) of 25000 M⁻¹ and a K app (Nucleic Acid [4]) of 2000 M⁻¹.

In the case of `CN(C)CCNC(=O)c1nc(NC(=O)c2nc(NC=O)cn2C)cn1C`, the IC50 (K562 [1]) is reported as greater than 500 µM, the K app (Tequatrovirus T4) is reported as 40000 M⁻¹ and the K app (Bos taurus) is reported as 32000 M⁻¹. The K app (Nucleic Acid [4]) was 23000 M⁻¹ and the K app (Nucleic Acid [2]) was 17000 M⁻¹.

`N[C@@H](Cc1ccc(N(CCCl)CCCl)cc1)C(=O)O` [MELPHALAN] was tested, and the IC50 (K562 [1]) was 35 µM.

With `CN(C)CCNC(=O)c1nc(NC(=O)c2nc(NC(=O)c3nc(NC=O)cn3C)cn2C)cn1C` the K app (Tequatrovirus T4) was 667000 M⁻¹, the K app (Bos taurus) was 774000 M⁻¹ and the K app (Nucleic Acid [4]) was 613000 M⁻¹. For the same molecule, the K app (Nucleic Acid [2]) was 594000 M⁻¹.
